From ChEMBL document CHEMBL5356998, “Diaporaustalides A-L, Austalide Meroterpenoids from a Plant Endophytic Diaporthe sp” (J Nat Prod, 2024)

What was measured:
[1] = Cytotoxicity against mouse splenocyte by MTT assay; type: toxicity, cell-based; details: mouse splenocytes
[2] = test system: Splenocyte; assay: Immunosuppressive activity in mouse splenocyte assessed as reduction in ConA-induced mouse T-cell proliferation; type: functional, cell-based
[3] = test system: Splenocyte; assay: Immunosuppressive activity in mouse splenocyte assessed as reduction in LPS-induced mouse B-cell proliferation; type: functional, cell-based
[4] = Selectivity index, ratio of CC50 for cytotoxicity against mouse splenocyte to IC50 for immunosuppressive activity in mouse splenocyte assessed as reduction in ConA-induced mouse T-cell proliferation; details: mouse splenocytes, read-out: Ratio CC50/IC50
[5] = Selectivity index, ratio of CC50 for cytotoxicity against mouse splenocyte to IC50 for immunosuppressive activity in mouse splenocyte assessed as reduction in LPS-induced mouse B-cell proliferation; details: mouse splenocytes, read-out: Ratio CC50/IC50
[6] = test system: B-cell; assay: Downregulation od IL-6 expression in LPS induced B cell (unknown origin) incubated for 48 hrs by ELISA method; type: functional, cell-based; details: dose 1-25 µM
[7] = target: Alpha-glucosidase (Saccharomyces cerevisiae S288c, UniProt P53341+P38158+P07265); assay: Inhibition of Saccharomyces cerevisiae alpha glucosidase using p-nitrophenyl glucopyranoside as substrate preincubated for 10 mins followed by substrate addition and measured after 20 mins by microplate reader analysis; type: protein assay
[8] = test system: HeLa; assay: Cytotoxicity against human HeLa cells by MTT assay; type: functional, cell-based

Row | IC50 [7] [µM] | Structure (SMILES) | CC50 [1] [µM] | IC50 [2] [µM] | IC50 [3] [µM] | selectivity ratio [4] | selectivity ratio [5] | Activity [6] | IC50 [8] [µM]
1 | – | COc1c2c(c(C=O)c3c1C(=O)OC3)O[C@]1(C)CC[C@H]3C(C)(C)[C@H](O)CC[C@]3(C)[C@H]1C2 | 24 | 11 | 6.7 | 2.2 | 3.6 | Dose-Dependent Effect | –
2 | – | COc1c2c(c(C=O)c3c1C(=O)OC3)O[C@]1(C)CC[C@@]3(O)[C@@](C)(C(=O)O)CCC[C@]3(C)[C@H]1C2 | > 50 | 35 | > 50 | > 1.4 | – | – | –
3 | – | COc1c2c(c(C=O)c3c1C(=O)OC3)O[C@]1(C)CC[C@@]3(O)[C@@](C)(C=O)CCC[C@]3(C)[C@H]1C2 | 43 | 37 | 39 | 1.2 | 1.1 | – | –
4 | – | COc1c(C)c2c(c(O)c1C/C=C(\C)CCC(=O)OCCN1CCOCC1)C(=O)OC2 [MYCOPHENOLATE MOFETIL] | – | – | 1 | – | – | – | –
5 | 166 | COc1c2c(c(C=O)c3c1C(=O)OC3)O[C@]1(C)CC[C@@]3(O)[C@@](C)(COC(C)=O)CCC[C@]3(C)[C@H]1C2 | > 40 | 28 | 17 | > 1.4 | > 2.3 | – | –
6 | 61 | COc1c2c(c(C=O)c3c1C(=O)OC3)O[C@]1(C)CC[C@@]3(O)C(C)(C)CCC[C@]3(C)[C@H]1C2 | > 50 | 42 | 3.8 | 1.1 | > 13 | Dose-Dependent Effect | –
7 | 92 | COc1c2c(c(C(OC)OC)c3c1C(=O)OC3)O[C@]1(C)CC[C@@]3(O)C(C)(C)CCC[C@]3(C)[C@H]1C2 | > 50 | > 50 | 44 | – | – | – | –
8 | – | COc1c2c(c(C=O)c3c1C(=O)OC3)O[C@]1(C)CC[C@@]3(O)C(C)(C)[C@H](O)CC[C@]3(C)[C@H]1C2 | > 50 | > 50 | > 50 | – | – | – | –
9 | – | COc1c2c(c(C=O)c3c1C(=O)OC3)O[C@]1(C)CC[C@@]3(O)C(C)(C)[C@@H](O)CC[C@]3(C)[C@H]1C2 | > 50 | 28 | > 50 | > 1.7 | – | – | –
10 | – | COc1c2c(c(C=O)c3c1C(=O)OC3)O[C@]1(C)CC[C@@]3(O)C(C)(C)CC[C@@H](O)[C@]3(C)[C@H]1C2 | > 50 | > 50 | 31 | – | > 1.6 | – | –
11 | – | COc1c2c(c(C=O)c3c1C(=O)OC3)O[C@]1(C)CC[C@@]3(O)[C@@](C)(CO)CCC[C@]3(C)[C@H]1C2 | > 50 | 25 | > 50 | > 2 | – | – | –
12 | – | COc1c2c(c(C=O)c3c1C(=O)OC3)O[C@]1(C)CC[C@H]3C(C)(C)[C@@H](O)CC[C@]3(C)[C@H]1C2 | > 50 | 35 | > 50 | > 1.4 | – | – | 9.6
13 | – | COc1c2c(c(C=O)c3c1C(=O)OC3)O[C@]1(C)[C@H](O)C[C@@]3(O)C(C)(C)CCC[C@]3(C)[C@H]1C2 | 23 | 22 | 8.5 | > 1 | 2.7 | – | –
